According to the supplement of paper PMC4862054:

Experiments:
Settings in all cases: incubation time: 72 h
BT-474 [1] = assay: normalised response (% of control), CellTiter-Glo; higher = more viable cells (100 = DMSO, 0 = benzethonium chloride kill control)
In short: (§1)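 Breast cancer cell lines were exposed for 72 h in 384-well plates to compound at 5 concentrations, 10-fold apart, covering a 10,000-fold range fixed for each compound. Plates were read for CellTox Green fluorescence and CellTiter-Glo luminescence and normalised to 0.1 % DMSO (100) and a positive kill control (0). Each value is the normalised signal at one concentration of the series.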

BT-549 [2] = assay: as above
In short: as §1

CAL-120 [3] = assay: as above
In short: as §1

CAL-148 [4] = assay: as above
In short: as §1

CAL-51 [5] = assay: as above
In short: as §1

CAL-85-1 [6] = assay: as above
In short: as §1

DU-4475 [7] = assay: as above
In short: as §1

HCC1143 [8] = assay: as above
In short: as §1

HCC1599 [9] = assay: as above
In short: as §1

HCC1937 [10] = assay: as above
In short: as §1

HDQ-P1 [11] = assay: as above
In short: as §1

Hs578T [12] = assay: as above
In short: as §1

MCF-10A = assay: as above
In short: as §1

MDA-MB-231 [13] = assay: as above
In short: as §1

MDA-MB-436 [14] = assay: as above
In short: as §1

MDA-MB-453 [15] = assay: as above
In short: as §1

MDA-MB-468 [16] = assay: as above
In short: as §1

MFM-223 [17] = assay: as above
In short: as §1

SK-BR-3 [18] = assay: as above
In short: as §1

BT-474 [19] = assay: normalised viability (% of control), CellTiter-Blue; higher = more viable cells (100 = DMSO, 0 = benzethonium chloride kill control)
Procedure: (§2)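 DSRT, CellTiter-Blue viability, 72 h incubation. Signal is normalised to DMSO and benzethonium chloride controls. Value is the normalised response at dose 1.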

BT-549 [20] = assay: as above
Procedure: as §2

CAL-120 [21] = assay: as above
Procedure: as §2

CAL-148 [22] = assay: as above
Procedure: as §2

CAL-51 [23] = assay: as above
Procedure: as §2

CAL-85-1 [24] = assay: as above
Procedure: as §2

DU-4475 [25] = assay: as above
Procedure: as §2

HCC1143 [26] = assay: as above
Procedure: as §2

HCC1599 [27] = assay: as above
Procedure: as §2

HCC1937 [28] = assay: as above
Procedure: as §2

HDQ-P1 [29] = assay: as above
Procedure: as §2

Hs578T [30] = assay: as above
Procedure: as §2

MDA-MB-231 [31] = assay: as above
Procedure: as §2

MDA-MB-436 [32] = assay: as above
Procedure: as §2

MDA-MB-453 [33] = assay: as above
Procedure: as §2

MDA-MB-468 [34] = assay: as above
Procedure: as §2

MFM-223 [35] = assay: as above
Procedure: as §2

SK-BR-3 [36] = assay: as above
Procedure: as §2

Compound	normalised response (BT-474 [1])	normalised response (BT-549 [2])	normalised response (CAL-120 [3])	normalised response (CAL-148 [4])	normalised response (CAL-51 [5])	normalised response (CAL-85-1 [6])	normalised response (DU-4475 [7])	normalised response (HCC1143 [8])	normalised response (HCC1599 [9])	normalised response (HCC1937 [10])	normalised response (HDQ-P1 [11])	normalised response (Hs578T [12])	normalised response (MCF-10A)	normalised response (MDA-MB-231 [13])	normalised response (MDA-MB-436 [14])	normalised response (MDA-MB-453 [15])	normalised response (MDA-MB-468 [16])	normalised response (MFM-223 [17])	normalised response (SK-BR-3 [18])	normalised viability (BT-474 [19])	normalised viability (BT-549 [20])	normalised viability (CAL-120 [21])	normalised viability (CAL-148 [22])	normalised viability (CAL-51 [23])	normalised viability (CAL-85-1 [24])	normalised viability (DU-4475 [25])	normalised viability (HCC1143 [26])	normalised viability (HCC1599 [27])	normalised viability (HCC1937 [28])	normalised viability (HDQ-P1 [29])	normalised viability (Hs578T [30])	normalised viability (MDA-MB-231 [31])	normalised viability (MDA-MB-436 [32])	normalised viability (MDA-MB-453 [33])	normalised viability (MDA-MB-468 [34])	normalised viability (MFM-223 [35])	normalised viability (SK-BR-3 [36])
Cc1c(N)nc([C@H](CC(N)=O)NC[C@H](N)C(N)=O)nc1C(=O)N[C@H](C(=O)N[C@H](C)[C@@H](O)[C@H](C)C(=O)N[C@H](C(=O)NCCc1nc(-c2nc(C(=O)NCCC[S+](C)C)cs2)cs1)[C@@H](C)O)[C@@H](OC1OC(CO)C(O)C(O)C1OC1OC(CO)C(O)C(OC(N)=O)C1O)c1cnc[nH]1 (some centres undefined) [Bleomycin] (1 nM)	96.3%	104%	99%	93.2%	113%	97.4%	97.1%	96.4%	90.8%	98%	96.4%	97.3%	93.2%	92.3%	102%	105%	95.5%	96.5%	103%	84.4%	97.3%	89.3%	112%	94.5%	97.8%	116%	92.5%	126%	92.7%	91.5%	98.8%	86.7%	121%	91.7%	85.4%	102%	83.4%
Cc1cc2c(F)c(Oc3ncnn4cc(OC[C@@H](C)O)c(C)c34)ccc2[nH]1 [Brivanib] (0.1 nM)	104%	100%	101%	106%	114%	101%	104%	104%	111%	101%	97.9%	104%	108%	107%	101%	104%	113%	105%	111%	93.5%	109%	78.7%	107%	93.4%	86.7%	109%	101%	96%	82.1%	84.9%	112%	99.5%	114%	104%	104%	96.5%	98%
CC(C)C[C@H](NC(=O)[C@H](CCc1ccccc1)NC(=O)CN1CCOCC1)C(=O)N[C@@H](Cc1ccccc1)C(=O)N[C@@H](CC(C)C)C(=O)[C@@]1(C)CO1 [Carfilzomib] (0.1 nM)	108%	97.3%	103%	109%	124%	105%	103%	104%	120%	105%	110%	100%	106%	107%	105%	108%	109%	104%	105%	116%	105%	89.8%	99.9%	110%	95.5%	107%	100%	100%	84.8%	95.6%	100%	132%	101%	96.9%	100%	83.4%	99.7%
Nc1nc(Cl)nc2c1ncn2[C@@H]1O[C@H](CO)[C@@H](O)[C@@H]1F [Clofarabine] (1 nM)	101%	94.8%	101%	90.5%	79.9%	97.4%	99%	96.7%	90%	98.1%	98.3%	103%	107%	101%	97.4%	106%	94.9%	101%	99.1%	89.5%	93.7%	90.4%	91%	108%	87%	101%	87.1%	101%	93.7%	118%	116%	90.3%	100%	107%	111%	93%	91%
CCN(CC)CCOc1ccc(C(=C(Cl)c2ccccc2)c2ccccc2)cc1 [Clomifene] (1 nM)	106%	101%	95.8%	109%	102%	104%	104%	105%	99.8%	96.9%	99.2%	101%	95.8%	106%	111%	106%	98.8%	99.6%	108%	95.6%	116%	90.2%	105%	94.5%	89%	92.8%	89.7%	79.7%	97.7%	125%	123%	104%	111%	102%	103%	101%	96.7%
C[C@@H]1C[C@H]2[C@@H]3CCC4=CC(=O)C=C[C@]4(C)[C@@]3(F)[C@@H](O)C[C@]2(C)[C@@]1(O)C(=O)CO [Dexamethasone] (1 nM)	107%	102%	94.3%	89.2%	116%	102%	100%	96.2%	100%	98.9%	104%	107%	90%	112%	115%	102%	94.6%	94.7%	95.6%	119%	157%	82.3%	109%	95.6%	107%	96.6%	91.8%	84%	82%	92.9%	93.5%	126%	85.8%	94.3%	106%	91.6%	111%
CC(C)C(=O)Nc1ccc([N+](=O)[O-])c(C(F)(F)F)c1 [Flutamide] (1 nM)	98.5%	98.5%	103%	96.8%	113%	96.7%	97%	93.2%	97.4%	94.7%	101%	98.2%	103%	99%	103%	113%	96%	98.4%	105%	96.8%	86.2%	93.6%	114%	109%	96.8%	100%	90.7%	119%	65.1%	118%	134%	90.2%	94.7%	104%	96.1%	90.4%	98.1%
